Data from the supplement of paper PMC10307832.

Experiments:
Assay in all cases: relative viability (nuclei count vs DMSO), 5 days (fraction); higher = more cells survive
Axitinib + AZD7762 = compound: CNC(=O)c1ccccc1Sc1ccc2c(/C=C/c3ccccn3)n[nH]c2c1 [Axitinib] + NC(=O)Nc1cc(-c2cccc(F)c2)sc1C(=O)N[C@H]1CCCNC1 [AZD7762] (partner 0.2 µM)
Outline: (§1)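 Each reported value is a median over duplicate plates. It expresses relative viability: treated-well nuclei count divided by vehicle-well nuclei count. Lung cancer cell lines in 1536-well plates were dosed by pin tool a day after seeding, alone with one drug or with a fixed anchor-drug dose plus five library-drug doses (not always all listed) in √10 steps, and nuclei were counted after 5 days.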

[1] = compound: CC1=CC=C(C=C1)C(=O)CN2C3=C(CCCC3)SC2=N [Pifithrin_alpha] + Nc1nc2[nH]cc(CCc3ccc(C(=O)N[C@@H](CCC(=O)O)C(=O)O)cc3)c2c(=O)[nH]1 [Pemetrexed] (partner 0.2 µM)
Outline: as §1

Bemcentinib + Dasatinib = compound: Nc1nc(Nc2ccc3c(c2)CC[C@@H](N2CCCC2)CC3)nn1-c1cc2c(nn1)-c1ccccc1CCC2 [Bemcentinib] + Cc1nc(Nc2ncc(C(=O)Nc3c(C)cccc3Cl)s2)cc(N2CCN(CCO)CC2)n1 [Dasatinib] (partner 0.075 µM)
Outline: as §1

Bemcentinib + Foretinib = compound: Nc1nc(Nc2ccc3c(c2)CC[C@@H](N2CCCC2)CC3)nn1-c1cc2c(nn1)-c1ccccc1CCC2 [Bemcentinib] + COc1cc2c(Oc3ccc(NC(=O)C4(C(=O)Nc5ccc(F)cc5)CC4)cc3F)ccnc2cc1OCCCN1CCOCC1 [Foretinib] (partner 0.25 µM)
Outline: as §1

| Cell Line | relative viability (Axitinib + AZD7762; first compound 0.005 µM) | relative viability (Axitinib + AZD7762; first compound 0.05 µM) | relative viability (Axitinib + AZD7762; first compound 0.1581 µM) | relative viability (Axitinib + AZD7762; first compound 0.5 µM) | relative viability ([1]; first compound 3.162 µM) | relative viability ([1]; first compound 31.62 µM) | relative viability ([1]; first compound 100 µM) | relative viability (Bemcentinib + Dasatinib; first compound 0.04 µM) | relative viability (Bemcentinib + Dasatinib; first compound 0.1265 µM) | relative viability (Bemcentinib + Dasatinib; first compound 0.4 µM) | relative viability (Bemcentinib + Dasatinib; first compound 1.265 µM) | relative viability (Bemcentinib + Dasatinib; first compound 4 µM) | relative viability (Bemcentinib + Foretinib; first compound 0.04 µM) | relative viability (Bemcentinib + Foretinib; first compound 0.1265 µM) | relative viability (Bemcentinib + Foretinib; first compound 0.4 µM) | relative viability (Bemcentinib + Foretinib; first compound 1.265 µM) | relative viability (Bemcentinib + Foretinib; first compound 4 µM) | relative viability (Axitinib + AZD7762; first compound 0.01581 µM) | relative viability ([1]; first compound 1 µM) | relative viability ([1]; first compound 10 µM) |
| --- | --- | --- | --- | --- | --- | --- | --- | --- | --- | --- | --- | --- | --- | --- | --- | --- | --- | --- | --- | --- |
| PC-3 [JPC-3] | 0.835 | 0.933 | 0.765 | 0.781 | 1.08 | 0.769 | 1.04 | 1.04 | 0.589 | 1.19 | 1.01 | 1.08 | 1.07 | 1.05 | 1.1 | 0.992 | 1.03 | – | – | – |
| HCC-366 | 0.307 | 0.377 | 0.337 | 0.405 | 0.154 | – | 0.133 | 0.544 | 0.621 | 0.621 | 0.852 | 0.659 | 0.888 | 0.952 | 0.946 | 0.914 | 0.941 | 0.206 | 0.158 | 0.139 |
| NCI-H2405 | 0.73 | 1.01 | 0.684 | 0.856 | 0.86 | 0.802 | 0.971 | 0.194 | 0.22 | 0.21 | 0.215 | 0.165 | 1.05 | 1.02 | 1.03 | 1.12 | 1.04 | 0.808 | – | 0.957 |
| LU99A | 0.433 | 0.397 | 0.39 | 0.415 | 0.243 | – | 0.172 | 0.489 | 0.568 | 0.519 | 0.661 | 0.573 | 0.751 | 0.763 | 0.778 | 0.816 | 0.837 | 0.451 | 0.183 | 0.19 |
| LCLC-97TM1 | 0.22 | 0.218 | 0.281 | 0.374 | 0.184 | – | 0.15 | 0.851 | 0.818 | 0.736 | 0.851 | 0.975 | 0.941 | 0.97 | 0.929 | 0.964 | 1.02 | 0.327 | – | 0.183 |
| A-427 | 0.805 | 0.807 | 0.718 | 0.887 | 1 | 0.759 | 0.905 | 0.719 | 0.737 | 0.68 | 0.707 | 0.691 | 1.09 | 1.1 | 1.24 | 1.06 | 1.19 | 0.77 | 0.827 | 0.87 |
| EMC-BAC-2 | 1.07 | 1.06 | 1.1 | 1.11 | 0.435 | 0.383 | 0.418 | 0.349 | 0.323 | 0.342 | 0.29 | 0.336 | 0.972 | 1.02 | 1.04 | 1.03 | 1.06 | 1.1 | 0.443 | 0.416 |
| NCI-H2228 | – | – | – | – | 0.416 | 0.252 | 0.298 | 0.14 | 0.566 | 0.532 | 0.526 | 0.538 | 0.516 | 0.931 | 0.994 | 0.908 | 0.776 | – | 0.406 | 0.335 |
| IA-LM | – | – | – | – | – | – | – | – | – | – | – | – | 1.08 | 1.25 | 0.985 | 1.08 | 1.09 | – | – | – |
| NCI-H838 | 0.929 | 0.963 | 0.926 | 1.06 | 0.242 | 0.235 | 0.287 | 0.221 | 0.305 | 0.309 | 0.254 | 0.294 | 1.05 | 1.15 | 1.21 | 1.11 | 1.18 | 0.97 | 0.194 | 0.272 |
| COR-L 105 | – | – | – | – | 1 | 0.926 | 1.03 | 0.317 | 0.328 | 0.329 | 0.404 | 0.272 | 1.43 | 1.27 | 1.01 | 0.856 | 0.993 | – | 1.13 | 0.951 |
| NCI-H358 | 0.529 | 0.626 | 0.512 | 0.635 | 0.192 | 0.149 | 0.145 | 0.153 | 0.146 | 0.148 | 0.163 | 0.171 | 0.723 | 0.827 | 0.73 | 0.749 | 0.853 | 0.509 | 0.17 | 0.158 |
| SK-MES-1 | – | – | – | – | 0.845 | 0.494 | 0.623 | 0.303 | 0.416 | 0.384 | 0.477 | 0.426 | 1.11 | 0.968 | 0.952 | 1.11 | 1.11 | – | 0.84 | 0.863 |
| LCLC-103H | 0.843 | 0.816 | 0.836 | 0.674 | 0.433 | 0.458 | 0.493 | 0.419 | 0.192 | 0.478 | 0.393 | 0.531 | 0.752 | 0.787 | 0.778 | 0.918 | 0.825 | 0.752 | 0.46 | 0.436 |
| HARA | 0.315 | 0.369 | 0.348 | 0.313 | 0.232 | 0.248 | 0.23 | 0.124 | 0.27 | 0.253 | 0.221 | 0.21 | 0.856 | 1.11 | 1.01 | 1.04 | 0.958 | 0.447 | 0.234 | 0.266 |
